Patent publication US20100311751A1, “SOLID DISPERSIONS CONTAINING AN APOPTOSIS-PROMOTING AGENT” (ABBOTT LABORATORIES, priority 2009, published 2010)

Assay: solubility in water
Type: physicochemical
Settings: pH 2
Excerpt: Examples of such active ingredients are, for example, Biopharmaceutics Classification System (BCS) Class IV drug substances that are characterized by low solubility and low permeability (see “Waiver of in vivo bioavailability and bioequivalence studies for immediate-release solid oral dosage forms based on a biopharmaceutics classification system”, U.S. Department of Health and Human Services, Food and Drug Administration, Center for Drug Evaluation and Research (CDER), August 2000). It will be recognized that aqueous solubility of many compounds is pH-dependent; in the case of such compounds the solubility of interest herein is at a physiologically relevant pH, for example a pH of about 1 to about 8.

CC1(C)CCC(c2ccc(Cl)cc2)=C(CN2CCN(c3ccc(C(=O)NS(=O)(=O)c4ccc(N[C@H](CCN5CCOCC5)CSc5ccccc5)c(S(=O)(=O)C(F)(F)F)c4)cc3)CC2)C1 [ABT-263]
solubility in water: less than 4 μg/ml
